# Experimental data published in patent US9902986B2, “Enterobactin conjugates and uses thereof” (Massachusetts Institute of Technology, priority 2013, dated 2018).
# Entries after “also recorded” stand apart in the source; their conditions may differ.
# Experiments:
# [1] = test system: Salmonella enterica serovar Typhimurium (STM) IR715; assay: Antibacterial activity assay, Salmonella Typhimurium; assay type: cell-based; settings: 50% MHB, 100 μM 2,2′-dipyridyl, 30° C., t=19 h
# Experimental: FIGS. 12A and 12B show exemplary antibacterial activities of Ent-Amp, Ent-Amx, MGE-Amp, MGE-Amx, DGE-Amp, and DGE-Amx against Salmonella enterica serovar Typhimurium (STM) IR715 (50% MHB with 100 μM 2,2′-dipyridyl to provide conditions of iron limitation, 30° C., t=19 h). (FIG. 12A) Antibacterial activity of Amp and the Amp-containing conjugates (Ent-Amp, MGE-Amp, and DGE-Amp). […] (FIG. 12B) Antibacterial activity of Amx and the Amx-containing conjugates (Ent-Amx, MGE-Amx, and DGE-Amx).
# E. coli CFT073 = assay: Antimicrobial activity assay in the presence of lipocalin 2; assay type: cell-based, Escherichia coli; settings: conjugate 100 nM, lcn2 1 μM, M9 minimal media, 37° C., 24 h
# Experimental: The bacterial cultures were grown in modified M9 minimal medium (Blango, M. G.; Ott, E. M.; Erman, A.; Veranic, P.; Mulvey, M. A. Forced Resurgence and Targeting of Intracellular Uropathogenic Escherichia coli Reservoirs. PLoS One 2014, 9, e93327-e93335) (Na2HPO4 6.8 g/L, KH2PO4 3 g/L, NaCl 0.5 g/L, NH4Cl 1 g/L, 0.4% glucose, 2 mM MgSO4, 0.1 mM CaCl2, 0.2% casein amino acids, and 16.5 μg/mL of thiamine) overnight. […] The cultures were serially diluted to an OD600 value of 0.00001 in fresh modified M9 minimal medium. Lipocalin 2 (Lcn2) was diluted into PBS buffer to a concentration of 20 μM upon arrival and frozen at −20° C. until use. Bovine serum albumin (BSA, Sigma-Aldrich) was prepared in PBS buffer to achieve a concentration of 20 μM. […] The bacterial growth was determined by measuring OD600 using the plate reader. […] The resulting mean OD600 was reported, and the error bars were the standard deviation. […] In contrast, Lcn2 had no effect of the antibacterial activity of MGE-Amp, MGE-Amx, DGE-Amp, or DGE-Amx.
# E. coli UTI89 = assay: Competition assay with native siderophores, E. coli UTI89; assay type: cell-based, Escherichia coli; settings: conjugate 100 nM, varied Ent, MGE or DGE, 50% MHB, 200 μM DP, 30° C., t=19 h
# Experimental: Ent was synthesized following a literature procedure^55 and stored as DMSO stock solution at −20° C. MGE and DGE were prepared from Ent using MceC and IroB as described for MGE-PEG3-N3 and DGE-PEG3-N3.
# (§1) In an exemplary experiment, select conjugates (Ent-Amp, MGE-Amp, and DGE-Amp) with select native siderophores (Ent, MGE, and DGE) were tested against the uropathogenic strain E. coli UTI89 in 50% MHB, t=19 h, 30° C. […] The concentration of the conjugates was fixed at 100 nM, and the concentration of the native siderophores was varied. […] These observations indicate that Ent, MGE, Ent-Amp, and MGE-Amp may enter via both FepA and IroN with different efficiency, but DGE and DGE-Amp may only enter via IroN.
# as §1, with “In another” for “In an”, “100 nM” for “100 nM,”
# [2] = test system: mixed culture of E. coli K-12 and E. coli UTI89; assay: Mixed culture assay, E. coli K-12 and E. coli UTI89; assay type: cell-based, Escherichia coli; settings: iron-deficient conditions (200 μM DP), 50% MHB, 30° C., t=19 h
# Text: (§2) No antibiotic marker was included in these cultures.
# [3] = test system: mixed culture of E. coli K-12 and E. coli CFT073; settings: iron-deficient conditions (200 μM DP), 50% MHB, 30° C., t=19 h
# Experimental: as §2
# 2,2′-dipyridyl (DP, 200 μM) was added to provide conditions of iron limitation.
# E. coli 25922 = assay: Antimicrobial activity assay, E. coli 25922; assay type: cell-based, Escherichia coli; settings: 50% MHB, 200 μM DP (iron-deficient), 30° C., t=19 h
# Experimental: No antibiotic marker was included in these cultures. […] Bacterial growth was determined by measuring OD600 using a BIOTEK SYNERGY HT plate reader. Each well condition was prepared in duplicate, and at least three independent replicates were conducted on different days. The resulting mean OD600 are reported and the error bars are the standard deviation.
# In another exemplary experiment, antibacterial activities of the conjugates were tested against E. coli 25922 in 50% MHB at 30° C., t=19 h. […] Under iron-deficient conditions, Ent-Amp and MGE-Amp provided a complete growth inhibition at 100 nM whereas 1 μM of DGE-Amp was required to provide a complete growth inhibition.
# E. coli H9049 = assay: Antimicrobial activity assay, E. coli H9049; assay type: cell-based, Escherichia coli; settings: 50% MHB, 30° C., t=19 h
# Experimental: Overnight cultures of the bacterial strains were prepared by inoculating 5 mL of LB with the bacterial freezer stocks and the cultures were incubated at 37° C. in a tabletop incubator shaker set at 150 rpm. The overnight culture grew to saturation and was diluted 1:100 into 5 mL of fresh LB medium containing DP (200 μM) and incubated at 37° C. with shaking at 150 rpm until OD600 reached 0.6. The cultures were subsequently diluted to an OD600 value of 0.001 in 50% MHB medium (11.5 g/L) with or without DP (200 μM). No antibiotic marker was included in these cultures. A 90-μL aliquot of the diluted culture was combined with a 10-μL aliquot of a 10× solution of the tested compounds in a 96-well plate, which was wrapped in […] and incubated at 30° C. with shaking at 150 rpm for 19 h. Bacterial growth was determined by measuring OD600 using a BIOTEK SYNERGY HT plate reader. Each well condition was prepared in duplicate, and at least three independent replicates were conducted on different days. The resulting mean OD600 are reported and the error bars are the standard deviation.
# In another exemplary experiment, antibacterial activities of the conjugates were tested against E. coli H9049 in 50% MHB at 30° C., t=19 h. DP (200 μM) was added to provide conditions of iron limitation.
Structure (SMILES),antibacterial activity relative to the unmodified antibiotic [1],effect of lipocalin-2 (lcn2) on antibacterial activity (E. coli CFT073),attenuation of antibacterial activity by native siderophores (E. coli UTI89),growth inhibition in mixed culture at 100 nM [2],growth inhibition in mixed culture at 100 nM [3],concentration required to provide complete growth inhibition (E. coli 25922),antibacterial activity at 100 nM (E. coli H9049; 200 μM DP),concentration at which growth inhibition was observed (attributed to iron deprivation) (E. coli H9049; 200 μM DP),concentration providing complete growth inhibition for both strains [2],concentration providing complete growth inhibition for both strains [3],concentration providing complete growth inhibition (E. coli 25922),concentration providing complete growth inhibition (E. coli H9049; 200 μM DP (iron-deficient)),"antibacterial activity, comparison (E. coli H9049; 200 μM DP)"
CC1(C)SC2C(NC(=O)C(NC(=O)CCCc3cn(CCOCCOCCOCCNC(=O)c4cc(O)c(O)c(C(=O)NC5COC(=O)C(NC(=O)c6cccc(O)c6O)COC(=O)C(NC(=O)c6cccc(O)c6O)COC5=O)c4)nn3)c3ccc(O)cc3)C(=O)N2C1C(=O)O (stereo not drawn) [Ent-Amx],enhanced antibacterial activity relative to unmodified Amx,attenuated in the presence of Lcn2,only attenuated in the presence of Ent or MGE,–,–,–,–,–,–,–,–,–,–
CC1(C)SC2C(NC(=O)C(NC(=O)CCCc3cn(CCOCCOCCOCCNC(=O)c4cc(O)c(O)c(C(=O)NC5COC(=O)C(NC(=O)c6cc(C7OC(CO)C(O)C(O)C7O)cc(O)c6O)COC(=O)C(NC(=O)c6cc(C7OC(CO)C(O)C(O)C7O)cc(O)c6O)COC5=O)c4)nn3)c3ccccc3)C(=O)N2C1C(=O)O (centres unmarked) [DGE-Amp],enhanced antibacterial activity relative to unmodified Amp,no effect; also recorded: unaffected; also recorded: not attenuated,"attenuated by Ent, MGE, or DGE",only inhibited the growth of E. coli UTI89,only inhibited the growth of E. coli CFT073,1 µM,inactive,10 µM,–,–,–,–,–
CC1(C)SC2C(NC(=O)C(NC(=O)CCCc3cn(CCOCCOCCOCCNC(=O)c4cc(O)c(O)c(C(=O)NC5COC(=O)C(NC(=O)c6cccc(O)c6O)COC(=O)C(NC(=O)c6cccc(O)c6O)COC5=O)c4)nn3)c3ccccc3)C(=O)N2C1C(=O)O (stereo not drawn) [Ent-Amp],enhanced antibacterial activity relative to unmodified Amp,attenuated in the presence of Lcn2,only attenuated in the presence of Ent or MGE,–,–,–,–,–,100 nM,100 nM,100 nM,100 nM,–
CC1(C)SC2C(NC(=O)C(NC(=O)CCCc3cn(CCOCCOCCOCCNC(=O)c4cc(O)c(O)c(C(=O)NC5COC(=O)C(NC(=O)c6cc(C7OC(CO)C(O)C(O)C7O)cc(O)c6O)COC(=O)C(NC(=O)c6cccc(O)c6O)COC5=O)c4)nn3)c3ccccc3)C(=O)N2C1C(=O)O (centres unmarked) [MGE-Amp],enhanced antibacterial activity relative to unmodified Amp,no effect; also recorded: unaffected; also recorded: not attenuated,"attenuated by Ent, MGE, or DGE",only inhibited the growth of E. coli UTI89,only inhibited the growth of E. coli CFT073,–,inactive,–,–,–,100 nM,–,more active against the bacteria than DGE-Amp
